Laboratory results: patent US4409232A, “Substituted oxadiazoles, method for the production thereof, compositions containing them and method of use thereof” (priority 1980, dated 1983)
Entries after “also recorded” stand apart in the source; their conditions may differ.

Legend:
[1] = tested on: beta-agonistic action (heart frequency); assay: Intrinsic sympathomimetic activity (ISA): increase of heart frequency in reserpinized rats relative to isoprenaline; assay type: in vivo, rat; conditions: for ISA % isoprenaline action: increase of heart frequency, reserpinized rats, isoprenaline maximum = 100%
Method: ISA: "Intrinsic sympathomimetic activity" (betaa -agonistic action). The percent increase of the heart frequency which is induced by a substance, referred to the maximum reaction of isoprenaline (100%). The measurements are carried out on reserpinolized rats which no longer show a sympathic tonus.

[2] = tested on: β1 receptors of the heart versus β2 receptors (atrium / trachea); assay: Cardioselectivity: antilog pA2 (atrium)-pA2 (trachea); assay type: cell-based, guinea pig; conditions: for Cardioselectivity antilog pA2 (A)-pA2 (T): antilog of pA2 (atrium) - pA2 (trachea), guinea pig; for cardioselectivity (in words): qualitative statement
Source text: Most commercial β-adrenolytics of similar structure influence both β1 and β2 receptors; that is, they inhibit the effect of the sympathetic nervous system on the heart as well as on the peripheral blood vessels or the bronchial muscles. Blocking of the β2 receptors leads to an increase in tonus of the smooth muscle with broncho spasms and increased resistance of the peripheral vessels. […] This is because β2 receptor-blocking substances are not to be administered in bronchial diseases (such as asthma) because of their broncho-constrictive action. However, treatment of […].
pA2 The strength of a beta-adrenoceptor blocker. Corresponds to the negative logarithm of the molar concentration of an antagonist which requires a doubling of the molar concentration of the agonist to achieve a given effect on isolated tissue. As test tissue are used the atrium and trachea of guinea pigs.
Cardioselectivity: antilog pA2 (atrium)-pA2 (trachea)

beta-adrenolytic action = assay: Half-life of the beta-adrenolytic action in rabbits after i.v. application; assay type: in vivo, rabbit; conditions: for t1/2 of beta-adrenolytic action: rabbits, i.v., time at which action has decreased to one half
Source text: […] : Time at which the beta-adrenolytic action of a substance in rabbits after i.v. application has decreased to one half.

[3] = target: T1, beta-adrenoceptor (trachea) (Cavia porcellus, UniProt Q8K4Z4); assay: pA2 as beta-adrenoceptor blocker on isolated guinea pig trachea; assay type: cell-based
T1 construct: As test tissue are used the atrium and trachea of guinea pigs; from tissue; host or cells: isolated guinea pig trachea
Source text: (§1) The terms used in Table 1 are defined as follows (from B. J. Clark: "Pharmacology of beta-adrenoceptor blocking agents" in "beta-Adrenoceptor blocking agents", P. R. Saxena and R. P. Forsyth edition. pA2 The strength of a beta-adrenoceptor blocker. Corresponds to the negative logarithm of the molar concentration of an antagonist which requires a doubling of the molar concentration of the agonist to achieve a given effect on isolated tissue. As test tissue are used the atrium and trachea of guinea pigs.

[4] = target: T2, beta-adrenoceptor (atrium) (Cavia porcellus, UniProt H0W3H1); assay: pA2 as beta-adrenoceptor blocker on isolated guinea pig atrium; assay type: cell-based
T2 construct: As test tissue are used the atrium and trachea of guinea pigs; from tissue; host or cells: isolated guinea pig atrium
Source text: as §1

T1 sequence (Q8K4Z4 whole entry): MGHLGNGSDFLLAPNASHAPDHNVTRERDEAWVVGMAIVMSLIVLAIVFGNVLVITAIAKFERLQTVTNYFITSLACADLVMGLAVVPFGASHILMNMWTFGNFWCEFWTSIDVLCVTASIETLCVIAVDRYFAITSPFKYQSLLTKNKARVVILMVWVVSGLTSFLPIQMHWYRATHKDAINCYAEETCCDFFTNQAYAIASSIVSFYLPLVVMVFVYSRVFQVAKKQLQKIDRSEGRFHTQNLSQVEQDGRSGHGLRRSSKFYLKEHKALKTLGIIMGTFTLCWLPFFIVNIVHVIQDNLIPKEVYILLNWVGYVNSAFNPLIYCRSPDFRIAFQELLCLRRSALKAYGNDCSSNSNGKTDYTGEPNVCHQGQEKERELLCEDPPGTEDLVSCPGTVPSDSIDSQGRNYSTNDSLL
T2 sequence (H0W3H1 1-470): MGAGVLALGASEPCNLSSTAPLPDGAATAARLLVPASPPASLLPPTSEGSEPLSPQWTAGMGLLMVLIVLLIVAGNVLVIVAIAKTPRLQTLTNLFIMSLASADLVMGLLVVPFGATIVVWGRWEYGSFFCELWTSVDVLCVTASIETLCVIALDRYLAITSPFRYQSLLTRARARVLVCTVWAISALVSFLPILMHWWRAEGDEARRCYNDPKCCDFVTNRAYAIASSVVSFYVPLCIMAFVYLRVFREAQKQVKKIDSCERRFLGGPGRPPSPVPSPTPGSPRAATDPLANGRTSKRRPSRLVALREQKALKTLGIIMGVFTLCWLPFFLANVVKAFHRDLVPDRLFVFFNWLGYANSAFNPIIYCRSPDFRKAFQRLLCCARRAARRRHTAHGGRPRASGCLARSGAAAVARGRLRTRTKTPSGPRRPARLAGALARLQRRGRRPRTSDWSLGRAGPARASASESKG

Compound	Local anesth. action (Local anesthetic action)	ISA % isoprenaline action [1] [%]	Cardioselectivity antilog pA2 (A)-pA2 (T) [2]	cardioselectivity (in words) ([2]; listed as (c))	half-life (in words) (beta-adrenolytic action; qualitative statement)	t1/2 of beta-adrenolytic action (beta-adrenolytic action) [h]	Kb [3] [nM]	Kb [4] [nM]	cardioselectivity (in words) [2]	agonistic / isoprenaline action (in words) ([1]; qualitative statement)
CCCCCCC(=O)Nc1ccc(OCC(O)CNC(C)(C)C)c(-c2nnco2)c1 (centres unmarked) [Example 2, 2-[2-(2-hydroxy-3-tert.-butylamino-propoxy)-5-n-heptanoylaminophenyl]-1,3,4oxadiazole]	0	0	25	preferred for their selectivity; also recorded: highly selectively active	particularly long half-life	3.5	1260	50.1	–	–
CCCCCCCCCC(=O)Nc1ccc(OCC(O)CNC(C)(C)C)c(-c2nnco2)c1 (centres unmarked) [Example 6, 2-[2-(2-hydroxy-3-tert.-butylamino-propoxy)-5-n-decanoylamino-phenyl]-1,3,4oxadiazole]	0	0	20	–	–	–	1580	79.4	preferred for their selectivity	–
CCCC(=O)Nc1ccc(OCC(O)CNC(C)C)c(C(C)=O)c1 (centres unmarked) [Comparison Substance 1, Acebutolol, reference compound]	present	27	–	–	–	1.6	9770	–	–	–
CCCCCCCC(=O)Nc1ccc(OCC(O)CNC(C)(C)C)c(-c2nnco2)c1 (centres unmarked) [Example 4, 2-[2-(2-hydroxy-3-tert.-butylamino-propoxy)-5-n-octanoylaminophenyl]-1,3,4 oxadiazole]	0	0	32	–	–	–	1260	39.8	preferred for their selectivity	–
CC(=O)Nc1ccc(OCC(O)CNC(C)(C)C)c(-c2nnco2)c1 (centres unmarked) [Example 1, 2-[2-(2-hydroxy-3-tert.-butylamino-propoxy)-5-acetamido-phenyl]-1,3,4 oxadiazole]	0	0	17	–	–	5	4170	209	preferred for their selectivity	–
CC(C)(C)NCC(O)COc1ccccc1-c1nnco1 (centres unmarked) [Comparison Substance 2, 2-[2-(2-hydroxy-3-tert.butylamino-propoxy)-phenyl]-1,3,4-oxadiazole, reference compound]	0	79	3	–	–	–	158	50.1	–	high isoprenaline action
CCCCCCCCC(=O)Nc1ccc(OCC(O)CNC(C)(C)C)c(-c2nnco2)c1 (centres unmarked) [Example 5, 2-[2-(2-hydroxy-3-tert.-butylamino-propoxy)-5-n-nonanoylaminophenyl]-1,3,4 oxadiazole]	–	–	–	–	–	–	–	–	preferred for their selectivity	–
